Test results: patent publication US8907126B2, “Tyrosine derivative and method for producing tyrosine derivative” (NARD Institute, Ltd., priority 2012, dated 2014)

Biological target: T1, human recombinant melatonin MT1 receptors (Homo sapiens, UniProt P48039)
T1 construct: expressed in transfected cells; host or cells: CHO-K1 cells (membranes)
Test: Inhibitory activity test against melatonin MT1 receptor ([35S]GTPγS binding, SPA)
Type: biochemical
Conditions: membranes of CHO-K1 cells expressing MT1, 0.1 nM 2-iodomelatonin, 0.3 nM [35S]GTPγS, HEPES buffer pH 7.4; test concentration not given
Procedure: An inhibitory activity of the tyrosine derivative of the present invention against a melatonin MT1 receptor was evaluated. Specifically, human recombinant melatonin MT1 receptors expressed in CHO-K1 cells were used in modified HEPES buffer pH 7.4. The tyrosine derivative obtained in the above Example 8 was preincubated with 0.025 mg/mL of membranes of the cell and 1 μM of guanosine diphosphate in modified HEPES buffer (pH 7.4) at 25° C. for 20 minutes, then SPA, i.e. Scintillation proximity assay, beads were added thereto. The mixture was preincubated at 30° C. for 60 minutes. The reaction was initiated by adding 0.3 nM of [^35S]GTPγS and incubating the mixture for 30 minutes, and the test compound-induced inhibition of 0.1 nM 2-iodomelatonin-induced increase of [^35S]GTPγS binding response was measured.

T1 sequence (P48039 whole entry): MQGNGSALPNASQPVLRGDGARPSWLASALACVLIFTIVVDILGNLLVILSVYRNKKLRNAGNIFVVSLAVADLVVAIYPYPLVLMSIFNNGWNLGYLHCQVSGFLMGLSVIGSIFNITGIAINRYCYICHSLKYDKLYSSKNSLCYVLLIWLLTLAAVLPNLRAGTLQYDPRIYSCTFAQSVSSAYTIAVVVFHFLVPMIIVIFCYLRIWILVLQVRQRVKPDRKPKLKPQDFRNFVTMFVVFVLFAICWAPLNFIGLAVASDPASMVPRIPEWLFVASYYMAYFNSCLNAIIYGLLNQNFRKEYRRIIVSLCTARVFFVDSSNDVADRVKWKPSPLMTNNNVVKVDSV

## CC(C)(C)OC(=O)NC(Cc1cc(OCCCl)ccc1I)C(=O)OC(C)(C)C (stereo not shown) [Example 8]
  inhibition of 2-iodomelatonin-induced increase of [35S]GTPγS binding response: 33%
